Assay results as given in US20240343699A1, “DERIVATIVES OF SUBSTITUTED MORPHOLINES AND USES THEREOF” (Supernus Pharmaceuticals, Inc., priority 2023, published 2024).
pIC50: −log10 of the molar value. Read-outs that look alike come from different tables or passages of the source.

How the values were obtained:
[1] = Metabolic stability in rat liver S9; assay type: in vitro ADME, Sprague Dawley rat; details: 1 μM in SD Rat liver S9 fractions; for half-life at 1 μM / microsomal CLint at 1 μM: Sprague-Dawley, pH 7.2; for microsomal CLint at 1 μM: read-out: CLint(mic.)
Method: (§1) Incubation Buffer (PBK): 50 mM potassium phosphate buffer was prepared from 1 M potassium phosphate buffer, pH 7.2. […] The dilution of […] was prepared by 90% methanol/10% DMSO, then 10 μM working solutions were prepared by diluting the 0.1 mM intermediates with 50 mM PBK. […] Prior to use, the stock solutions were brought to room temperature and thoroughly mixed. […] Cofactors Solutions: the mixture of cofactors solution was made at 10 mM of NADPH and 10 mM of UDPGA in PBK buffer.
(§2) The incubation was carried out in 96-well plates. The liver S9 working solutions were added to 96-well plates (80 μL/well) in duplicate. […] Reaction was initiated by adding cofactor mixture 10 μL/well. The plates were incubated at 37° C. in a water bath with shaking. […] The final organic solvent content in the incubation was ≤1%.
(§3) At specified time points, i.e., 5, 10, 20, 30 and 60 minutes, NCF60 (without adding NADPH (Nicotinamide-adenine dinucleotide phosphate, reduced form) and UDPGA (Uridine 5′-diphosphoglucuronic acid trisodium salt) replaced with PBK buffer reaction was stopped by adding three volumes of stop solution. The time zero (To) samples were prepared by adding three volumes of stop solution to liver S9 samples, followed by addition of test article or control, and cofactor mixture solution 10 μL/well.
(§4) Subsequently, 100 μL of supernatant.
(§5) Positive controls: 7-ethoxycoumarin and 7-hydroxycoumarin.

[2] = target: T1, hNav1.5 (Homo sapiens, UniProt Q14524); experiment: Nav1.5 human sodium ion channel cell based automated patch clamp assay (QPatch HT); details: Antagonist
T1 construct: CYL6004QP2DR
T1 sequence (Q14524 whole entry): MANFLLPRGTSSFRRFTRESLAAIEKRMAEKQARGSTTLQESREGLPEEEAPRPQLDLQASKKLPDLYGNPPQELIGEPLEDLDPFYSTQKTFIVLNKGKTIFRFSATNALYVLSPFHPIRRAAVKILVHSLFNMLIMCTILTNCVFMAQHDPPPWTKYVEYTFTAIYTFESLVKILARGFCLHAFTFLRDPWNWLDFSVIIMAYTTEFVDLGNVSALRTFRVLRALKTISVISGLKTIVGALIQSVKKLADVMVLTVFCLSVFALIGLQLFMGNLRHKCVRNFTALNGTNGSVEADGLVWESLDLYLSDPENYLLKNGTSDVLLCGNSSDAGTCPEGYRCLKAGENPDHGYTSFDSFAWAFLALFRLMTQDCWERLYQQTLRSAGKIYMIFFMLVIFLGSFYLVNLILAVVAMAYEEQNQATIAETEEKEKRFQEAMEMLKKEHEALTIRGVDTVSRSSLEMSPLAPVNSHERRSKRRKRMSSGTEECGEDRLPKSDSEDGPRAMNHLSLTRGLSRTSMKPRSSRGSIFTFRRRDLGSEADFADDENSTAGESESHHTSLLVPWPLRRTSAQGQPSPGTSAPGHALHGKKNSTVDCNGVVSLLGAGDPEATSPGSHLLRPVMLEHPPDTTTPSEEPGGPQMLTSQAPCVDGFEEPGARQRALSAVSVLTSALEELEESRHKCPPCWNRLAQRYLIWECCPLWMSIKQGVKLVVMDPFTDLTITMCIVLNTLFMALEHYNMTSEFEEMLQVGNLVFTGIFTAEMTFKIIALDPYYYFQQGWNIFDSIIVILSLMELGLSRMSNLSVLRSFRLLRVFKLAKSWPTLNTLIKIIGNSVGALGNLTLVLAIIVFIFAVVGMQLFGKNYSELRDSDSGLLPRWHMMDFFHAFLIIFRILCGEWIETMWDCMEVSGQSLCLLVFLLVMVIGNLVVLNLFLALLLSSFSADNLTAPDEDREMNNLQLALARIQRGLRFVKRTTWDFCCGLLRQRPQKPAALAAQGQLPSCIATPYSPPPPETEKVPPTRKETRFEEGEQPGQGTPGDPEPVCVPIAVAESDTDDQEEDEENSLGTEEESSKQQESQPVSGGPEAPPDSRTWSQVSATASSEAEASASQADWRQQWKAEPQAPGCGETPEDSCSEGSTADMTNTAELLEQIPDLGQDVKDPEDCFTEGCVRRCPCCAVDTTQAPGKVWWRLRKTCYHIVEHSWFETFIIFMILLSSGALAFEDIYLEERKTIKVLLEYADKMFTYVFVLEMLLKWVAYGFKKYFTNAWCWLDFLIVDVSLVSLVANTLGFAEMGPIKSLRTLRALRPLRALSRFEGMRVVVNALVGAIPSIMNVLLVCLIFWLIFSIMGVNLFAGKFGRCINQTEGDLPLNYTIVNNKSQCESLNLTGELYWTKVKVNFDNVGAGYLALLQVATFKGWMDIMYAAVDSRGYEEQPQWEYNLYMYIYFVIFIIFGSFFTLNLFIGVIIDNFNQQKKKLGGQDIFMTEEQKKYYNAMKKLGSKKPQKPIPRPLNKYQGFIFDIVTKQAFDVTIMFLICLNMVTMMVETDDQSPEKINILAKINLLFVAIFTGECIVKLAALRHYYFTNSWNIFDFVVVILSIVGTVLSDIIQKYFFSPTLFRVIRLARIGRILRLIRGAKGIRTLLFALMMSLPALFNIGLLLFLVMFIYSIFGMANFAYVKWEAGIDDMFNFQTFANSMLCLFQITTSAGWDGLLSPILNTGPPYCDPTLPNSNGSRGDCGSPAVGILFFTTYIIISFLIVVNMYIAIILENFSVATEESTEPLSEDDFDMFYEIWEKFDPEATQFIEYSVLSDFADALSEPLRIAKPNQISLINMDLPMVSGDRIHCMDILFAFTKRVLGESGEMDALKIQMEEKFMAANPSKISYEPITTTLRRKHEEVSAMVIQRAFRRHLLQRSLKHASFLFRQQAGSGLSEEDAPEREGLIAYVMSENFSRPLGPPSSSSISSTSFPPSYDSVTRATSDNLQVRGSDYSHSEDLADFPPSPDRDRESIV
Method: Electrophysiological assays were conducted to profile five compounds for activities on the ion channel target using the QPatch HT electrophysiological platform.
CYL6004QP2DR Nav1.5 Human Sodium Ion Channel Cell Based Automated Patch Clamp Assay. Cells were held at −120 mV for 100 ms, stepped to −130 mV for 100 ms, and stepped back to −120 mV for 100 ms to measure the leak current. Na channels exist in a) resting or closed state at −120 mV, b) a transient open state that inactivates to c) inactivated state at −10 mV. Na current inhibition within 1-2 ms of channel opening at −10 mV is open channel inhibition (pulse 1). […] Pulse 1 and 2 are used to investigate drug binding to the open state and inactivated state of the Na channels, respectively. Each concentration of compound was applied for 5 minutes.
Current amplitudes more than 200 pA at the control stage were analyzed. The amplitude of the current was calculated by measuring the difference between the peak inward current on stepping to −10 mV (i.e. peak of the current) and remaining current at the end of the step. The current was assessed in vehicle control conditions and then at the end of each five (5) minute compound application.

[3] = Metabolic stability in human liver S9; assay type: in vitro ADME; details: 1 μM in Human liver S9 fractions; for half-life at 1 μM / microsomal CLint at 1 μM: pH 7.2; for microsomal CLint at 1 μM: read-out: CLint(mic.)
Method: as §1, §2, §3, §4, §5

[4] = tested on: behavioral signature; experiment: SmartCube phenotypic screening (class/subclass and DRFA similarity analysis); assay type: in vivo, male C57/B16 mice; details: 40 and 80 mg/kg PO
Method: A study was conducted to evaluate the CNS-like efficacy of novel test compounds using the SmartCube® System.
Animals. Male C57/B16 mice from Taconic Laboratories (Germantown, NY) were used. Upon receipt, mice were group-housed in OPTIMice® ventilated cages with 4 mice per cage. Mice were acclimated to the colony room for at least one week prior to test, and subsequently tested at approximately 8-9 weeks of age. All animals were examined, handled, and weighed prior to initiation of the study to assure adequate health and suitability and to minimize nonspecific stress associated with manipulation. During the course of the study, 12/12 light/dark cycles were maintained. The room temperature was 20-23° C. with a relative humidity maintained between 30-70%. Chow and water were provided ad libitum for the duration of the study.
Test compounds. All compounds were administered orally at a dose volume of 10 mL/kg, 20 minutes prior to testing. Formulations were prepared fresh on day of testing and dosing was completed within one hour of formulation. Compounds were prepared according to the table below. Twelve mice were used in each treatment group:
SmartCube®. The SmartCube® system is designed to and can successfully measure numerous spontaneous behaviors and response to challenges in the same testing environment. The hardware includes force sensors and a number of aversive stimuli to elicit behavior. Three high-resolution video cameras provide constant 3D view of the mouse in the SmartCube® apparatus (SC) throughout the entire testing period. During the 45-minute test session the mice are exposed to a sequence of challenges. The cubes are cleaned between each run.
Digital videos of the subjects were processed through computer segmentation algorithms to fit geometrical models to each mouse frame image. The resulting fitted parameters were then analyzed using behavioral classifier algorithms to extract behavioral states, such as rearing, locomotion, and immobility. The data obtained in this way was used to define a drug signature for PGI's known reference compounds and establish a therapeutic class signature against which a test sample can be compared.
The data mining effort utilizes several analytical methods including Bayesian probabilistic density models and Decision trees. The algorithms consider ˜2,600 measures including frequency and duration of behavioral states such as grooming, rearing, etc., and many other features obtained during the test session.
Two major types of analyses are routinely conducted: Class and subclass.
Each reference drug was tested at multiple doses appropriate for that drug in mice.
Multiple analyses of the data were performed to quantitatively produce independent predictions of drug class, and drug subclass. The behavioral signatures of the test drugs were evaluated using these classifiers to predict potential therapeutic utility.
The results for the class and subclass analyses are presented as standardized bar charts with percentages that sum to 100 for each dose.
Similarity Analysis Using “Clouds Framework”. The outcome from SmartCube® is a large set of features (behavioral parameters) that can be used for various analyses. […] Therefore, we formed statistically independent combinations of the original features (further referred to as de-correlated features). Each de-correlated feature extracted information from the whole cluster of the original features, so the new feature space would have lower dimensionality. Next, we applied a proprietary feature ranking algorithm to score each feature for its discrimination power (ability to separate the two groups, e.g. vehicle from treatment). Ranking is an important part of our analyses because it weighs each feature change by its relevance. We applied a feature ranking algorithm, derived from support vector in the support vector machine learning method, to rank each feature.

[5] = Pulse 1 (open state), read-out: Estimated IC50 (Pulse 1)
[6] = Pulse 2 (inactivated state), read-out: Estimated IC50 (Pulse 2)

| Compound | % Remaining at 60 min [1] [%] | half-life at 1 μM [1] [min] | microsomal CLint at 1 μM [1] [µL/min/mg] | pIC50 [2, 5] | pIC50 [2, 6] | % Remaining at 60 min [3] [%] | half-life at 1 μM [3] [min] | microsomal CLint at 1 μM [3] [µL/min/mg] | behavioral activity (class/subclass analysis) [4] |
| --- | --- | --- | --- | --- | --- | --- | --- | --- | --- |
| CCOc1ccccc1OCC1CN(C(=O)OC(C)OC(=O)[C@H](N)C(C)C)CCO1 (stereo partly drawn) [COMPOUND D] | 0.48 | 9.4 | 148 | < 4.00 | 4.85 | 0.00 | 1.86 | 746 | dose dependent increase in activity |
| CCOc1ccccc1OCC1CN(C(=O)OC(OC(=O)[C@@H](N)C(C)C)C(C)C)CCO1 (stereo partly drawn) [COMPOUND E] | 0.00 | 4.8 | 290 | 4.03 | 5.24 | 0.76 | 8.9 | 155 | moderate activity |
